Measurements as given in ChEMBL document CHEMBL5649166, “RIP3 induces apoptosis independent of pronecrotic kinase activity” (Mol Cell, 2014).

Assays:
[1] = target: T1, Dual specificity tyrosine-phosphorylation-regulated kinase 3 (Homo sapiens) (UniProt O43781); test: Residual activity of human DYRK3 using RRRFRPASPLRGPPK as substrate at 1 uM in presence of 32P-ATP by Hotspot assay relative to control
T1 sequence (whole entry): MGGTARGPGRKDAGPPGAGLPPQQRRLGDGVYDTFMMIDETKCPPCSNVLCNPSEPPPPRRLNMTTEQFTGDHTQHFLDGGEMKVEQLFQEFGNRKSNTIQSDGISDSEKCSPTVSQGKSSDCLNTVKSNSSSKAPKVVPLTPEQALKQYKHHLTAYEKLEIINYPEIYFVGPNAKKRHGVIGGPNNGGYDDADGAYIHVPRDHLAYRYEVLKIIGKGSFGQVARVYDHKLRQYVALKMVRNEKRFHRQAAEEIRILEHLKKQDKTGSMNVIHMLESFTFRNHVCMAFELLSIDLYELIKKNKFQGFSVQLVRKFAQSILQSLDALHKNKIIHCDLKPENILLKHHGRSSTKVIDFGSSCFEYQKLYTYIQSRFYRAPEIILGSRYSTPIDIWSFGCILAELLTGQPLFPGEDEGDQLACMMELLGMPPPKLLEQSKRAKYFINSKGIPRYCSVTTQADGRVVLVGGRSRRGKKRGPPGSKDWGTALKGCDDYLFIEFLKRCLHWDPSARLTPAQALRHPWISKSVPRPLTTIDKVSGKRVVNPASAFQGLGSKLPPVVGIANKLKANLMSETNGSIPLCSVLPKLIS

[2] = target: T2, Mitogen-activated protein kinase kinase kinase 7 (Homo sapiens) (UniProt O43318); test: Inhibition of human TAK1 using casein as substrate at 1 uM in presence of 32P-ATP by Hotspot assay relative to control; values are per cent of control
T2 sequence (whole entry): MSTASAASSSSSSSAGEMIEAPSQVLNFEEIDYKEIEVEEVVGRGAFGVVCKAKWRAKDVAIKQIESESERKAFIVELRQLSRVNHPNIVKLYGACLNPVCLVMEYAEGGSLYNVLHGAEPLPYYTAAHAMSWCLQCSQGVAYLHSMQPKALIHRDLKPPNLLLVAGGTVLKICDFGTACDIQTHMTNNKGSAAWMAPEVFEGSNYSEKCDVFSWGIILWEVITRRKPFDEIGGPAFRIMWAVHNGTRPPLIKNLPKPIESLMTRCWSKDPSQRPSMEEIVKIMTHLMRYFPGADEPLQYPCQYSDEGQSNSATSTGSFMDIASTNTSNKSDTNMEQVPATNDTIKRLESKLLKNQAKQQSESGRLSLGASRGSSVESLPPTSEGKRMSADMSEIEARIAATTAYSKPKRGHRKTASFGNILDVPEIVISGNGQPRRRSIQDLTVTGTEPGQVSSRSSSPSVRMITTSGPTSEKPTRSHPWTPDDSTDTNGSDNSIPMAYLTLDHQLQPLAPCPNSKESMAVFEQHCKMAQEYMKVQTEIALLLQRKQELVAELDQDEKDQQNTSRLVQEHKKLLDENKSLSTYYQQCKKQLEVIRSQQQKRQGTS

[3] = target: Tyrosine-protein kinase ABL1 (Homo sapiens) (UniProt P00519); test: Inhibition of human ABL1 using EAIYAAPFAKKK as substrate at 1 uM in presence of 32P-ATP by Hotspot assay relative to control; values are per cent of control
[4] = target: Tyrosine-protein kinase JAK2 (Homo sapiens) (UniProt O60674); test: Inhibition of human JAK2 using poly[Glu:Tyr] (4:1) as substrate at 1 uM in presence of 32P-ATP by Hotspot assay relative to control; values are per cent of control
[5] = target: Platelet-derived growth factor receptor alpha (Homo sapiens) (UniProt P16234); test: Inhibition of human PDGFRa using poly[Glu:Tyr] (4:1) as substrate at 1 uM in presence of 32P-ATP by Hotspot assay relative to control; values are per cent of control
[6] = target: Mitogen-activated protein kinase kinase kinase kinase 4 (Homo sapiens) (UniProt O95819); test: Inhibition of human HGK/MAP4K4 using myelin basic protein as substrate at 1 uM in presence of 32P-ATP by Hotspot assay relative to control; values are per cent of control
[7] = target: T3, NUAK family SNF1-like kinase 2 (Homo sapiens) (UniProt Q9H093); test: Inhibition of human SNARK/NUAK2 using KKKVSRSGLYRSPSMPENLNRPR as substrate at 1 uM in presence of 32P-ATP by Hotspot assay relative to control; values are per cent of control
T3 sequence (whole entry): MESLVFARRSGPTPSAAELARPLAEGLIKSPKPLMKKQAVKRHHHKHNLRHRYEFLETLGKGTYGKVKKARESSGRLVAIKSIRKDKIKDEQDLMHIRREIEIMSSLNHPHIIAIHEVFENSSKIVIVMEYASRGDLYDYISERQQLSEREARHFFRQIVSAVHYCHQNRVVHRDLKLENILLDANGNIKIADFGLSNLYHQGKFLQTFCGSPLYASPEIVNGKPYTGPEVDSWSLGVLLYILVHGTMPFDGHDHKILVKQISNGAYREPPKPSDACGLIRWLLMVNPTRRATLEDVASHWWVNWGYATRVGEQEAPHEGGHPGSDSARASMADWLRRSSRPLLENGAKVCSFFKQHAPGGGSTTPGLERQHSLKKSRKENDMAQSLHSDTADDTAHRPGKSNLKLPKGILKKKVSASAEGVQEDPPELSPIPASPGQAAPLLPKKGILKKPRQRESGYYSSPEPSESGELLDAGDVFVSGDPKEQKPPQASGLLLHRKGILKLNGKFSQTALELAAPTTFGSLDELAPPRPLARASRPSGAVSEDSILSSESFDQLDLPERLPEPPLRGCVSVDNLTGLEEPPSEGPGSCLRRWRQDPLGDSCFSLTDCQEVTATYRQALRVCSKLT

Platelet-derived growth factor receptor alpha (Homo sapiens), sequence (P16234 whole entry): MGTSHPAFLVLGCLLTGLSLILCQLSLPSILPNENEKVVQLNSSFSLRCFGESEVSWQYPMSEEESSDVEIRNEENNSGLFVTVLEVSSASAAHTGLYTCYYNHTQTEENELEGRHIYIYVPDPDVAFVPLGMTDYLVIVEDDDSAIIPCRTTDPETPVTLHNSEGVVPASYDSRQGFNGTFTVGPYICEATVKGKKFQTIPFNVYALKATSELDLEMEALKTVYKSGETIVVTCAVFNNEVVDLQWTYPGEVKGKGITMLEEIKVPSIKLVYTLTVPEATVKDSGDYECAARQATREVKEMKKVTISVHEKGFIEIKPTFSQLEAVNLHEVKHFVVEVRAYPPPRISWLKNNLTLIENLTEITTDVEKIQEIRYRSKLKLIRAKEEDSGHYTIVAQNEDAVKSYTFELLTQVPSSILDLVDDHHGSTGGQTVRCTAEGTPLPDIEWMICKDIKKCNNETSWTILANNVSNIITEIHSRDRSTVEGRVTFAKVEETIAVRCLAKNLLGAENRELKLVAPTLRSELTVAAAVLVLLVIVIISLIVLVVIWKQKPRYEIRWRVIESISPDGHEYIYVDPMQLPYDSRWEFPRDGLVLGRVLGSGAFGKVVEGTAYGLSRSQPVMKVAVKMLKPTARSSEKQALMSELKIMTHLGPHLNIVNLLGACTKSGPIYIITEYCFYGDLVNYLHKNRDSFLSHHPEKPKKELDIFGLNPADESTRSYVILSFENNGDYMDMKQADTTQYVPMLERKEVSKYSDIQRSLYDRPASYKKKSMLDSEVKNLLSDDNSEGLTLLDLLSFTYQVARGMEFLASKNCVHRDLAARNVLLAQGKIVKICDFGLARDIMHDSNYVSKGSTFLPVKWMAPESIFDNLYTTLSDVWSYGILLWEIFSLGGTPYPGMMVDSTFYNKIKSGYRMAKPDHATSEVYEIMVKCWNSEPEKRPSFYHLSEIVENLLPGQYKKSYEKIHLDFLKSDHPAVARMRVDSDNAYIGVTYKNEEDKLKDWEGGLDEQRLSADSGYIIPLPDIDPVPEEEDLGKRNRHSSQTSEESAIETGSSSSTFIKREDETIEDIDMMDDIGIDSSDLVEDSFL
Mitogen-activated protein kinase kinase kinase kinase 4 (Homo sapiens), sequence (O95819 2-1239 limits assumed): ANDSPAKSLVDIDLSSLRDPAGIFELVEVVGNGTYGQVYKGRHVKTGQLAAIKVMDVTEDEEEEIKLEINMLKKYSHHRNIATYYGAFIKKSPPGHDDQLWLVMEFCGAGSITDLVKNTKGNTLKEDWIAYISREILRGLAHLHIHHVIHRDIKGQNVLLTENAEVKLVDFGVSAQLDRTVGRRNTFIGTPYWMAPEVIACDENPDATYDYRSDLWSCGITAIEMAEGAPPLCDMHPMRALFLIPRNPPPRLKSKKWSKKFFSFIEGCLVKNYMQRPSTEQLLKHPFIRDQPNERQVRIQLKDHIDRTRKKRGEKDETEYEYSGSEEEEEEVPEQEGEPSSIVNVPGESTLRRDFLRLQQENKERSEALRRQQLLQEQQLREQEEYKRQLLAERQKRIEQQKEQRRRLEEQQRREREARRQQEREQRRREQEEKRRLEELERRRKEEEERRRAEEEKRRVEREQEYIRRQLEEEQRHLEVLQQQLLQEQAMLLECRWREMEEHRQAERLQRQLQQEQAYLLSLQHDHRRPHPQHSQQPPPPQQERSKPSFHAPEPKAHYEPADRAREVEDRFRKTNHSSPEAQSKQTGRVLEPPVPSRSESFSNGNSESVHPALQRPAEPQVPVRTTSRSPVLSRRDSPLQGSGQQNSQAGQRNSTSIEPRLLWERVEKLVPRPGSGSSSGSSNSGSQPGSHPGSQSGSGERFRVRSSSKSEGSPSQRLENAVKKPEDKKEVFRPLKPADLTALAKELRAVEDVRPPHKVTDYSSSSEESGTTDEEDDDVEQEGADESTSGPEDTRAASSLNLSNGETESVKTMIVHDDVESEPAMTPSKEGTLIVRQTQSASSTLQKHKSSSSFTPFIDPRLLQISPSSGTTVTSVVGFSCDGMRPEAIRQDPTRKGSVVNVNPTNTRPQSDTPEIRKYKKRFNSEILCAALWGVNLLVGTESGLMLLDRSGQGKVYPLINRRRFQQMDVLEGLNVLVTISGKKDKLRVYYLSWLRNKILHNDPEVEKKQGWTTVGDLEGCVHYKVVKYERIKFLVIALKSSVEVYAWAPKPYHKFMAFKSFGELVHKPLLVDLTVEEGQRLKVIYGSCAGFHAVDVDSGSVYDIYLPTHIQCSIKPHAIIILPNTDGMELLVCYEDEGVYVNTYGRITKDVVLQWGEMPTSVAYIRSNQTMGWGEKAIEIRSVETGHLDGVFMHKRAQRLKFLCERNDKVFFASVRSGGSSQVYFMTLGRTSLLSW
Tyrosine-protein kinase ABL1 (Homo sapiens), sequence (P00519 whole entry): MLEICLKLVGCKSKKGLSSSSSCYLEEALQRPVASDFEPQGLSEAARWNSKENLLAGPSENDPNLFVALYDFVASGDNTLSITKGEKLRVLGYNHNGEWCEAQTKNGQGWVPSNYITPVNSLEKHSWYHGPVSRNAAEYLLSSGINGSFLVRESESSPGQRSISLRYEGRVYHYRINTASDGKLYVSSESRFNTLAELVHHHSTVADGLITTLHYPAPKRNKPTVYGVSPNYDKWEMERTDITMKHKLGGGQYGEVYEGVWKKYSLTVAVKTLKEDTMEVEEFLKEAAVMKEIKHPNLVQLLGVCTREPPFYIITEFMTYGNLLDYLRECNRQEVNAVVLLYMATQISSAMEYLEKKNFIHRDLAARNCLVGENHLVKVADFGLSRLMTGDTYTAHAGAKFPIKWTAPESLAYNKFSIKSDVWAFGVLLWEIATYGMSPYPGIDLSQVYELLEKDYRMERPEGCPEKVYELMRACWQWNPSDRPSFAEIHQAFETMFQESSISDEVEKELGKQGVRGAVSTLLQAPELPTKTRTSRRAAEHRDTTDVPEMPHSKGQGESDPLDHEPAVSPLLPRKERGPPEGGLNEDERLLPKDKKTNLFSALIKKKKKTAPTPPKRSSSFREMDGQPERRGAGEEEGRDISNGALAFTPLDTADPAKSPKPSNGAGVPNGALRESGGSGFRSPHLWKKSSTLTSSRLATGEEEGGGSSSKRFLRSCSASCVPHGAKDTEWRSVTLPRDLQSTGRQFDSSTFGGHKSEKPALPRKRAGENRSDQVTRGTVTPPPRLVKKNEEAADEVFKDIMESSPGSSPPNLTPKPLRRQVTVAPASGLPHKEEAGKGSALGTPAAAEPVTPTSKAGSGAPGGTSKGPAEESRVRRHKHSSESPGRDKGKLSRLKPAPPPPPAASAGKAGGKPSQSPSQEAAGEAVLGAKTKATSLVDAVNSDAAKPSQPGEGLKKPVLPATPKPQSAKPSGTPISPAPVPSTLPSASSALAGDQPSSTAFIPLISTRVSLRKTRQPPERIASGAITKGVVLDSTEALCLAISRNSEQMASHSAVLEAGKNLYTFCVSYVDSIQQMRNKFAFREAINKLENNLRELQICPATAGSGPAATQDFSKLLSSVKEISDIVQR
Tyrosine-protein kinase JAK2 (Homo sapiens), sequence (O60674 whole entry): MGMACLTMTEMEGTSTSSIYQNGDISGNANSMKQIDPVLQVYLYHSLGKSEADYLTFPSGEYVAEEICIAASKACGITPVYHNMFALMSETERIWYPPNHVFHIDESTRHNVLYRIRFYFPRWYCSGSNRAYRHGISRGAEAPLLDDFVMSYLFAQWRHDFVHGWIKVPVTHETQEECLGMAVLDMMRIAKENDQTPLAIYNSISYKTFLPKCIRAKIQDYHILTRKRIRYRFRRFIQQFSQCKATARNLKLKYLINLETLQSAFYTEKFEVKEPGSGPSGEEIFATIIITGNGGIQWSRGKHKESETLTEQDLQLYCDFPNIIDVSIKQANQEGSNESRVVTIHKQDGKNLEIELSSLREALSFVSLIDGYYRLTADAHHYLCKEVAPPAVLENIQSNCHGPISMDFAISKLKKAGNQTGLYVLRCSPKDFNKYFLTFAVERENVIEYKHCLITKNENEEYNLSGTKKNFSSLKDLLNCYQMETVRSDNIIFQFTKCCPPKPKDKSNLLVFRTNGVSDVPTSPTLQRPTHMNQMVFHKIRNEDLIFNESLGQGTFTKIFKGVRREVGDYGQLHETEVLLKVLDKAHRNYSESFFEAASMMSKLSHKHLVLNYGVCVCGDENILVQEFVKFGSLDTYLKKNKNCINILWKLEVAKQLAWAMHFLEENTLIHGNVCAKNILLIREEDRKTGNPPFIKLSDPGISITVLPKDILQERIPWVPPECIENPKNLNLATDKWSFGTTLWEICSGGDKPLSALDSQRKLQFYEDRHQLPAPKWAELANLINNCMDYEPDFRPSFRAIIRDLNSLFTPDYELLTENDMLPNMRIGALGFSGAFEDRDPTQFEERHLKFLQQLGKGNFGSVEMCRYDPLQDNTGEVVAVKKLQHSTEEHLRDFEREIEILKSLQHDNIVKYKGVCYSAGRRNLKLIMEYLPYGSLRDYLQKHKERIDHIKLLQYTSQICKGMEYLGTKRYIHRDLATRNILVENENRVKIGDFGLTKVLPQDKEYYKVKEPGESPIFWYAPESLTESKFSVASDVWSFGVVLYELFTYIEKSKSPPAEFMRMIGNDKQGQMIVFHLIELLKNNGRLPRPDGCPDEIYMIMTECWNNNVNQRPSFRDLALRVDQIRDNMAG

Compound | residual activity [1] | residual activity [2] | residual activity [3] | residual activity [4] | residual activity [5] | residual activity [6] | residual activity [7]
CC(C)S(=O)(=O)c1ccc2nccc(Nc3ccc4scnc4c3)c2c1 | 106% | 97.6% | 25.8% | 102% | 74.6% | 83% | 108%
Cc1cc(-c2cnc(N)c3c(-c4ccc5scnc5c4)csc23)n(C)n1 | 92.9% | 96.2% | 6.1% | 89.8% | 9.84% | 21.2% | 95.9%
CNC(=O)c1ccc2c(c1)ncn2-c1ccc(CC(=O)OC(C)(C)C)cc1 | 101% | 106% | 92.7% | 95.7% | 32.7% | 102% | 89.7%
